For orientation: IC50 means the point on the concentration scale where inhibition reaches its midpoint.

Among the data in patent US7781591B2, “Substituted 3-cyanopyridines as protein kinase inhibitors” (Wyeth LLC, priority 2006, dated 2010) are IC50 values, retold here.

The target in one assay is T1, human PKCθ full length enzyme (Homo sapiens, UniProt Q04759).
T1 construct: human PKCθ full length enzyme (Panvera Cat# P2996); purchased Panvera P2996
T1 sequence (Q04759 whole entry): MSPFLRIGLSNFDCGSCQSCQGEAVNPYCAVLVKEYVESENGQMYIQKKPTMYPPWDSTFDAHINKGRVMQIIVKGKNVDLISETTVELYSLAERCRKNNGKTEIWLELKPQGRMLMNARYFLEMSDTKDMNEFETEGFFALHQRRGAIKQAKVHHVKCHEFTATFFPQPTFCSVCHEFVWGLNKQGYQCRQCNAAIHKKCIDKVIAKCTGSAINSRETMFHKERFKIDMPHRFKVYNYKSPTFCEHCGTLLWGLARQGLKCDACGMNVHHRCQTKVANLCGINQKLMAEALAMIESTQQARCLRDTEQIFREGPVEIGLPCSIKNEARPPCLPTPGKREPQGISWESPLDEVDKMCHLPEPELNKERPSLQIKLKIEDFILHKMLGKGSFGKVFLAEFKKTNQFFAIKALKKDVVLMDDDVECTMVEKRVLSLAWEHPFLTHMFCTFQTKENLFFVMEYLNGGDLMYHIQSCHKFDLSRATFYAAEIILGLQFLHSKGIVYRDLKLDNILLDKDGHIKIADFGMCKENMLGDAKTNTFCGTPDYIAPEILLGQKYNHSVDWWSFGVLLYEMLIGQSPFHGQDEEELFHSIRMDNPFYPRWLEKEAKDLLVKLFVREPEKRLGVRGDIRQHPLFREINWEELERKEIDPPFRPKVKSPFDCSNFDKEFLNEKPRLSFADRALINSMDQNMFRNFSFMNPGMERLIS
The experiment in a line: PKCθ IMAP assay (fluorescence polarization). Format: biochemical.
Conditions: not given
(In general: Polarisation of emitted light reports the rotation of a fluorescent probe.)
In the case of `Cc1c(Nc2c(C#N)cncc2-c2cc3cc(CN4CC[N+](C)([O-])CC4)ccc3o2)ccc2[nH]ccc12` [Compound 554, 4-[(4-methyl-1H-indol-5-yl)amino]-5-{5-[(4-methyl-4-oxidopiperazin-1-yl)methyl]-1-benzofuran-2-yl}nicotinonitrile], half-maximal inhibition (IC50) was put at 6 nM.

The assay is the same for the next values; noted with them: human PKCθ full length enzyme, IMAP; average value; read-out: IC50 PKCθ IMAP.
`CN(C)c1cccc(-c2cncc(C#N)c2Nc2cccc3[nH]ccc23)c1` [Compound 254, 5-[3-(dimethylamino)phenyl]-4-(1H-indol-4-ylamino)nicotinonitrile]: the IC50 is 80 nM.
On to `N#Cc1cncc(-c2cccc(-c3ccc(C(=O)NC4CCCCC4)cc3)c2)c1Nc1ccc2[nH]ccc2c1` [Compound 202, 3′-[5-cyano-4-(1H-indol-5-ylamino)pyridin-3-yl]-N-cyclohexylbiphenyl-4-carboxamide], for which the IC50 turned out to be 340 nM.
On to `COc1ccc(-c2cncc(C#N)c2Nc2cnc3[nH]ccc3c2)cc1OC` [Compound 488, 5-(3,4-dimethoxyphenyl)-4-(1H-pyrrolo[2,3-b]pyridin-5-ylamino)nicotinonitrile], for which the concentration for half-maximal inhibition (IC50) stood at 2020 nM.
In the case of `N#Cc1cncc(-c2cc3cc(CNCCCO)ccc3s2)c1Nc1cccc2[nH]ccc12` [Compound 275, 5-(5-{[(3-hydroxypropyl)amino]methyl}-1-benzothien-2-yl)-4-(1H-indol-4-ylamino)nicotinonitrile], the IC50 worked out at 2 nM.
In the case of `Cc1c(Nc2c(C#N)cncc2-c2cc3cc(CN4CCC(N5CCCC5)CC4)ccc3o2)ccc2[nH]ccc12` [Compound 393, 4-[(4-methyl-1H-indol-5-yl)amino]-5-{5-[(4-pyrrolidin-1-ylpiperidin-1-yl)methyl]-1-benzofuran-2-yl}nicotinonitrile], the half-maximal inhibitory concentration (IC50) was found to be 1 nM.
Take `Cc1c(Nc2c(C#N)cncc2-c2cccc(CN3CCN(C)CC3)c2)ccc2[nH]ccc12` [Compound 454, 4-[(4-methyl-1H-indol-5-yl)amino]-5-{3-[(4-methylpiperazin-1-yl)methyl]phenyl}nicotinonitrile]: the IC50 came to 3 nM.
In the case of `CC(=O)Nc1ccc(-c2cncc(C#N)c2Nc2ccc3[nH]ccc3c2C)cc1` [Compound 576, N-(4-{5-cyano-4-[(4-methyl-1H-indol-5-yl)amino]pyridin-3-yl}phenyl)acetamide], the IC50 came to 73 nM.
The same measure, in the same setting: as for `CN1CCN(Cc2ccc(-c3cccc(-c4cncc(C#N)c4Nc4ccc5[nH]ccc5c4)c3)s2)CC1` [Compound 184, 4-(1H-indol-5-ylamino)-5-(3-{5-[(4-methylpiperazin-1-yl)methyl]-2-thienyl}phenyl)nicotinonitrile], the figure is 260 nM; as for `Cc1noc(C)c1-c1cncc(C#N)c1Nc1ccc2[nH]ccc2c1` [Compound 269, 5-(3,5-dimethylisoxazol-4-yl)-4-(1H-indol-5-ylamino)nicotinonitrile], 10900 nM; as for `COc1ccc(-c2cncc(C#N)c2Nc2cccc3[nH]ccc23)cc1OCCCl` [Compound 303, 5-[3-(2-chloroethoxy)-4-methoxyphenyl]-4-(1H-indol-4-ylamino)nicotinonitrile], 40 nM.
Still for that read-out and setting: to `N#Cc1cncc(-c2cc3ccccc3[nH]2)c1Nc1cccc2[nH]ccc12` [Compound 325, 5-(1H-indol-2-yl)-4-(1H-indol-4-ylamino)nicotinonitrile] belongs 60 nM; to `CN1CCN(CCOc2ccc(-c3cncc(C#N)c3Nc3cccc4[nH]ccc34)cc2)CC1` [Compound 335, 4-(1H-indol-4-ylamino)-5-{4-[2-(4-methylpiperazin-1-yl)ethoxy]phenyl}nicotinonitrile], 10 nM; to `N#Cc1cncc(-c2cc3cc(CN4CCCC4)ccc3s2)c1Nc1cccc2[nH]ccc12` [Compound 280, 4-(1H-indol-4-ylamino)-5-[5-(pyrrolidin-1-ylmethyl)-1-benzothien-2-yl]nicotinonitrile], 4 nM.
For `N#Cc1cncc(-c2cccc(Br)c2)c1Nc1cccc2[nH]ccc12` [Compound 114, 5-(3-bromophenyl)-4-(1H-indol-4-ylamino)nicotinonitrile], the concentration for half-maximal inhibition (IC50) is 2 nM.
Still for that read-out and setting: to `Cc1c(Nc2c(C#N)cncc2-c2cnc(N3CCOCC3)nc2)ccc2[nH]ccc12` [Compound 511, 4-[(4-methyl-1H-indol-5-yl)amino]-5-(2-morpholin-4-ylpyrimidin-5-yl)nicotinonitrile] belongs 83 nM; to `COc1ccc(-c2cncc(C#N)c2Nc2ccc3[nH]ccc3c2)cc1OCCN(CCO)CCO` [Compound 237, 5-(3-{2-[bis(2-hydroxyethyl)amino]ethoxy}-4-methoxyphenyl)-4-(1H-indol-5-ylamino)nicotinonitrile], 4320 nM.
Consider `Cc1c(Nc2c(C#N)cncc2-c2csc3ccccc23)ccc2[nH]ccc12` [Compound 585, 5-(1-benzothiophen-3-yl)-4-[(4-methyl-1H-indol-5-yl)amino]nicotinonitrile], for which the half-inhibitory concentration (IC50) came out at 88 nM.
As to `Cc1c(Nc2c(C#N)cncc2-c2ccc(OCCCN(C)C)cc2)ccc2[nH]ccc12` [Compound 475, 5-{4-[3-(dimethylamino)propoxy]phenyl}-4-[(4-methyl-1H-indol-5-yl)amino]nicotinonitrile], the IC50 worked out at 9 nM.
On to `Cc1c(Nc2c(C#N)cncc2-c2cccnc2)ccc2[nH]ccc12` [Compound 519, 4-[(4-methyl-1H-indol-5-yl)amino]-3,3′-bipyridine-5-carbonitrile], for which the concentration for half-maximal inhibition (IC50) was 36 nM.
On to `N#Cc1cccc(-c2cncc(C#N)c2Nc2cccc3[nH]ccc23)c1` [Compound 311, 5-(3-cyanophenyl)-4-(1H-indol-4-ylamino)nicotinonitrile], for which the IC50 came out at 20 nM.
On to `CC(=O)Nc1ccccc1-c1cncc(C#N)c1Nc1ccc2[nH]ccc2c1C` [Compound 577, N-(2-{5-cyano-4-[(4-methyl-1H-indol-5-yl)amino]pyridin-3-yl}phenyl)acetamide], for which the half-inhibitory concentration (IC50) came out at 36 nM.
The same measure, in the same setting: as for `N#Cc1cncc(-c2cccc(-c3ccc(C(=O)NCCCCO)cc3)c2)c1Nc1cccc2[nH]ccc12` [Compound 308, 3′-[5-cyano-4-(1H-indol-4-ylamino)pyridin-3-yl]-N-(4-hydroxybutyl)biphenyl-4-carboxamide], the figure is 30 nM.
Regarding `Cc1c(Nc2c(C#N)cncc2-c2cccc(C(=O)O)c2)ccc2[nH]ccc12` [Compound 556, 3-{5-cyano-4-[(4-methyl-1H-indol-5-yl)amino]pyridin-3-yl}benzoic acid], the 50% inhibitory concentration (IC50) was 110 nM.
For the compound `Cc1c(Nc2c(C#N)cncc2-c2ccnn2C)ccc2[nH]ccc12` [Compound 583, 4-[(4-methyl-1H-indol-5-yl)amino]-5-(1-methyl-1H-pyrazol-5-yl)nicotinonitrile], the half-maximal inhibitory concentration (IC50) amounted to 61 nM.
Same read-out and setting: to `N#Cc1cncc(-c2ccc3[nH]ccc3c2)c1Nc1ccc2[nH]ccc2c1` [Compound 263, 5-(1H-indol-5-yl)-4-(1H-indol-5-ylamino)nicotinonitrile] belongs 50 nM.
Regarding `Cc1c(Nc2c(C#N)cncc2-c2ccnc(CN3CCOCC3)c2)ccc2[nH]ccc12` [Compound 453, 4-[(4-methyl-1H-indol-5-yl)amino]-2′-(morpholin-4-ylmethyl)-3,4′-bipyridine-5-carbonitrile], the half-maximal inhibitory concentration (IC50) stood at 60 nM.
For `N#Cc1cncc(-c2cc3cc(CN4CCOCC4)ccc3s2)c1Nc1cccc2[nH]ccc12` [Compound 281, 4-(1H-indol-4-ylamino)-5-[5-(morpholin-4-ylmethyl)-1-benzothien-2-yl]nicotinonitrile], the half-maximal inhibitory concentration (IC50) was 10 nM.
For `Cc1c(Nc2c(C#N)cncc2-c2ccc3c(c2)sc2ccccc23)ccc2[nH]ccc12` [Compound 593, 5-(dibenzo[b,d]thiophen-3-yl)-4-(4-methyl-1H-indol-5-ylamino)nicotinonitrile], the half-maximal inhibitory concentration (IC50) is 120 nM.
The same measure, in the same setting: as for `COc1ccc(-c2cncc(C#N)c2Nc2ccc3[nH]ccc3c2)cc1OCCN1CCC(O)CC1` [Compound 238, 5-{3-[2-(4-hydroxypiperidin-1-yl)ethoxy]-4-methoxyphenyl}-4-(1H-indol-5-ylamino)nicotinonitrile], the figure is 210 nM; as for `Cc1c(Nc2c(C#N)cncc2-c2ccc(OCCN3CCN(C)CC3)cc2)cc(Cl)c2[nH]ccc12` [Compound 535, 4-[(7-chloro-4-methyl-1H-indol-5-yl)amino]-5-{4-[2-(4-methylpiperazin-1-yl)ethoxy]phenyl}nicotinonitrile], 38 nM; as for `COc1ccc(-c2cncc(C#N)c2Nc2ccc3[nH]ccc3c2)cc1OCCNc1nnc(C)s1` [Compound 183, 4-(1H-indol-5-ylamino)-5-(4-methoxy-3-{2-[(5-methyl-1,3,4-thiadiazol-2-yl)amino]ethoxy}phenyl)nicotinonitrile], 70 nM.
With `CCN1CCN(CCOc2ccc(-c3cncc(C#N)c3Nc3ccc4[nH]ccc4c3C)cc2)CC1` [Compound 425, 5-{4-[2-(4-ethylpiperazin-1-yl)ethoxy]phenyl}-4-[(4-methyl-1H-indol-5-yl)amino]nicotinonitrile], the IC50 was 9 nM.
For `N#Cc1cncc(-c2cc3ccccc3o2)c1Nc1ccc2[nH]ccc2c1` [Compound 268, 5-(1-benzofuran-2-yl)-4-(1H-indol-5-ylamino)nicotinonitrile], the half-inhibitory concentration (IC50) was 10 nM.
As to `CCCCN1CCN(CCOc2ccc(-c3cncc(C#N)c3Nc3ccc4[nH]ccc4c3C)cc2)CC1` [Compound 368, 5-{4-[2-(4-butylpiperazin-1-yl)ethoxy]phenyl}-4-[(4-methyl-1H-indol-5-yl)amino]nicotinonitrile], the 50% inhibitory concentration (IC50) was found to be 10 nM.
With `Cc1c(Nc2c(C#N)cncc2-c2cc3cc(CN4CCNCC4)ccc3o2)ccc2[nH]ccc12` [Compound 540, 4-[(4-methyl-1H-indol-5-yl)amino]-5-[5-(piperazin-1-ylmethyl)-1-benzofuran-2-yl]nicotinonitrile], the IC50 was 5 nM.
Turning to `N#Cc1cncc(-c2cccc(C(F)(F)F)c2)c1Nc1cccc2[nH]ccc12` [Compound 310, 4-(1H-indol-4-ylamino)-5-[3-(trifluoromethyl)phenyl]nicotinonitrile], the IC50 came to 20 nM.
As for `Cc1cc2[nH]ccc2cc1Nc1c(C#N)cncc1-c1ccc(OCCN2CCCCC2)cc1` [Compound 504, 4-[(6-methyl-1H-indol-5-yl)amino]-5-[4-(2-piperidin-1-ylethoxy)phenyl]nicotinonitrile], the IC50 came to 84 nM.
